In one series the test system is A549 (lung carcinoma). The experiment in a line: Antiproliferative activity, sulforhodamine B assay. In kind it is cell-based, human. The conditions noted are these: Homo sapiens, A549; SRB, 72 h incubation; read-out: IC50 ± SD, A-549. The source says:
(§1) Ten different human cancer cell lines (including drug-resistant sublines) and one non-tumorigenic murine fibroblasts cell line were used to determine antiproliferative activity of the tested compounds. The MDA-MB-231 (breast adenocarcinoma), UM-UC-3 (urinary bladder transitional cell carcinoma), LoVo (colorectal adenocarcinoma), LoVo^Dx (colorectal adenocarcinoma, doxorubicin-resistant) and Balb/3T3 (non-tumorigenic murine fibroblasts) were purchased from the American Type Culture Collection (ATCC; Rockville, USA). The MCF-7 (breast adenocarcinoma) and A549 (lung carcinoma) were purchased from European Collection of Authenticated Cell Cultures (ECACC; Porton Down, UK). The UM-UC-3^CDDP, UM-UC-3^GEM, UM-UC-3^VBL, and UM-UC-3^CDDP/GEM cell lines were established at Hirszfeld Institute of Immunology and Experimental Therapy of the Polish Academy of Sciences (HIIET, PAS, Wroclaw, Poland) by the continuous exposure to the increasing concentrations of corresponding cytostatics.
(§2) The Balb/3T3 and UM-UC-3 were cultured in Dulbecco’s Modified Eagle Medium (DMEM; Life Technologies, UK) supplemented with 10% (v/v) fetal bovine serum (FBS; GE Healthcare HyClone, Logan, USA) and 2 mM L-glutamine (Sigma-Aldrich, Poznań, Poland). The UM-UC-3^CDDP, UM-UC-3^GEM, UM-UC-^3VBL, and UM-UC-3^CDDP/GEM culture media were additionally supplemented with appropriate cytostatics: 2.5 µg/mL cisplatin (Accord, Warsaw, Poland) for UM-UC-3^CDDP, 500 nM gemcitabine (Sigma-Aldrich, Poznań, Poland) for UM-UC-3^GEM, 5 nM vinblastine (Sigma-Aldrich, Poznań, Poland) for UM-UC-3VBL, 2.5 µg/mL cisplatin and 500 nM gemcitabine for UM-UC-3^CDDP/GEM. The LoVo cell line was cultured in F-12K Nutrient Mixture (F-12K; Corning, Corning, USA), supplemented with 10% (v/v) FBS. LoVo^Dx culture medium was additionally supplemented with doxorubicin 100 ng/mL (Accord, Warsaw, Poland). The MCF-7 cell line was cultured in Eagle’s medium (HIIET, PAS, Wroclaw, Poland), supplemented with 10% (v/v) FBS (Sigma-Aldrich, Poznań, Poland), 2 mM L-glutamine, MEM non-essential amino acid solution 1% (v/v) (Sigma-Aldrich, Poznań, Poland), insulin 8 µg/mL (Sigma-Aldrich, Poznań, Poland). The MDA-MB-231 cell line was cultured in RPMI 1640 (HIIET, PAS, Wroclaw, Poland), supplemented with 10% (v/v) FBS (Sigma-Aldrich, Poznań, Poland) and 2 mM L-glutamine. The A 549 cell line was cultured in OptiMEM (HIIET, PAS, Wroclaw, Poland), supplemented with 5% (v/v) FBS (GE Healthcare HyClone, Logan, USA) and 2 mM L-glutamine. All culture media were supplemented with antibiotics—100 μg/mL streptomycin (Polfa Tarchomin, Warsaw, Poland) and 100 U/mL penicillin (Sigma-Aldrich, Poznań, Poland).
(§3) All cell lines were cultured in a humidified atmosphere at 37 °C with 5% (v/v) CO2 and passaged twice a week using EDTA-Trypsin solution (pH 8; HIIET, Wroclaw, Poland) as a detachment agent.
(§4) All compounds, for antiproliferative activity assessment, were stored at […] as 50 mM solutions in dimethyl sulfoxide (DMSO; Avantor Performance Materials, Gliwice, Poland).
(§5) The cells were seeded on 384-well plates (Greiner Bio One, Kremsmünster, Austria) at 1 × 10^3 cells/well density for A 549, UM-UC-3, UM-UC-3^CDDP, UM-UC-3^GEM, UM-UC-3^CVBL and UM-UC-3^CDDP/GEM cell lines. Other cell lines were seeded at 2 × 10^3 cells/well. After overnight incubation, compounds were applied at eight concentrations (ranging from 100 µM to 0.03 µM). After 72 h incubation, the sulforhodamine B (SRB) assay based on Skehan et al. was carried out with slight modifications. In brief, 50 µL of the medium was replaced with 30 µL/well of 25% (w/v) trichloroacetic acid (Avantor Performance Materials, Gliwice, Poland). After 1 h incubation at room temperature, plates were washed three times with tap water, and 20 µL of 0.1% (w/v) solution of sulforhodamine B (Sigma-Aldrich, Poznan, Poland) in 1% (v/v) acetic acid (Avantor Performance Materials, Gliwice, Poland) was added to each well. […]

Series [1] has as its system LoVo (colorectal adenocarcinoma). Put plainly: Antiproliferative activity, sulforhodamine B assay. In kind it is cell-based, human. To be noted: Homo sapiens, LoVo; SRB, 72 h incubation; read-out: IC50 ± SD, LoVo.
Source text: as §1, §2, §3, §4, §5

Series [2] concerns LoVo^DX (colorectal adenocarcinoma, doxorubicin-resistant). Put plainly: Antiproliferative activity, sulforhodamine B assay. To be noted: Homo sapiens, LoVo/DX, SRB, 72 h incubation, read-out: IC50 ± SD, LoVo^DX. The class given is cell-based, human.
Source text: as §1, §2, §3, §4, §5
On the technique in general: Sulforhodamine B stains cellular protein and so reports cell mass.

Series [3] concerns MCF-7 (breast adenocarcinoma). The experiment in a line: Antiproliferative activity, sulforhodamine B assay. In kind it is cell-based, human. To be noted: Homo sapiens, MCF7; SRB, 72 h incubation; read-out: IC50 ± SD, MCF-7.
Source text: as §1, §2, §3, §4, §5

In series [4] the test system is MDA-MB-231 (breast adenocarcinoma). Put plainly: Antiproliferative activity, sulforhodamine B assay. The class given is cell-based, human. To be noted: Homo sapiens, MDA-MB-231; SRB, 72 h incubation; read-out: IC50 ± SD, MDA-MB-231.
Source text: as §1, §2, §3, §4, §5

For series [5], the system named is UM-UC-3 (urinary bladder transitional cell carcinoma). The experiment in a line: Antiproliferative activity, sulforhodamine B assay. In kind it is cell-based, human. To be noted: Homo sapiens, UMUC3; SRB, 72 h incubation; read-out: IC50 ± SD, UM-UC-3.
Source text: as §1, §2, §3, §4, §5

The test system of series [6] is UM-UC-3^CDDP (cisplatin-resistant). The experiment in a line: Antiproliferative activity, sulforhodamine B assay. The class given is cell-based, human. To be noted: Homo sapiens, SRB, 72 h incubation, read-out: IC50 ± SD, UM-UC-3^CDDP.
Source text: as §1, §2, §3, §4, §5

In series [7] the test system is UM-UC-3^CDDP/GEM (resistant to cisplatin and gemcitabine). Put plainly: Antiproliferative activity, sulforhodamine B assay. In kind it is cell-based, human. The conditions noted are these: Homo sapiens, SRB, 72 h incubation, read-out: IC50 ± SD, UM-UC-3^CDDP/GEM.
Source text: as §1, §2, §3, §4, §5

The subject of series [8] is UM-UC-3^GEM (gemcitabine-resistant). Put plainly: Antiproliferative activity, sulforhodamine B assay. The class given is cell-based, human. The conditions noted are these: Homo sapiens, SRB, 72 h incubation, read-out: IC50 ± SD, UM-UC-3^GEM.
Source text: as §1, §2, §3, §4, §5

Series [9] concerns UM-UC-3^VBL (vinblastine-resistant). The experiment in a line: Antiproliferative activity, sulforhodamine B assay. The class given is cell-based, human. The conditions noted are these: Homo sapiens, SRB, 72 h incubation, read-out: IC50 ± SD, UM-UC-3^VBL.
Source text: as §1, §2, §3, §4, §5

The subject of series [10] is Balb/3T3 (non-tumorigenic murine fibroblasts). The experiment in a line: Antiproliferative activity, sulforhodamine B assay. The class given is cell-based. The conditions noted are these: Mus musculus, BALB/3T3; SRB, 72 h incubation; non-tumorigenic line; read-out: IC50 ± SD, Balb/3T3.
Source text: as §1, §2, §3, §4, §5

Series [11] deals with ten diverse human cancer cells lines and murine non-tumorigenic cell line (Balb/3T3). Put plainly: Antiproliferative screen, whole cell line panel (statements in words). The class given is cell-based. To be noted: SRB; for antiproliferative activity (in words): across cell lines; for activity against resistant versus parent cell lines (in words): 10d: with exception of the line resistant to gemcitabine.
Source text: as §1, §2, §3, §4, §5

On the set-up of series [12]: method as in PMID 12031802. To be noted: Cu(II) complex; cited from earlier work.

On to `COC(=O)/C(=C/Sc1nc2cc(OC)ccc2o1)NC(=O)CNC(=O)OC(C)(C)C` [Compound 6c, Boc-Gly-ΔCys(S-5-methoxybenzoxazole)-OMe], for which the IC50 came to 6.2 ± 1.4 µM with A549 (lung carcinoma); 8.7 ± 1.1 µM in series [1]; 6.4 ± 0.4 µM in [2]; 5.3 ± 0.9 µM in series [3]; 5 ± 0.8 µM in series [4]; 7.2 ± 0.6 µM in series [5]. For the same molecule, the IC50 in series [6] amounted to 7.8 ± 0.7 µM; in series [7], 8.6 ± 1.4 µM; in series [8], 5.2 ± 0.6 µM; in series [9] it was 6 ± 1.5 µM; in series [10], 5.3 ± 1.2 µM. Further, the “antiproliferative activity (in words)” value in [11] is listed as “most potent representatives”. For the same molecule, in [11], the “activity against resistant versus parent cell lines (in words)” value is “equipotential towards both resistant and parent cell lines”.
Regarding `COC(=O)/C(=C/Sc1nc2ccccc2s1)NC(=O)CNC(=O)OC(C)(C)C` [Compound 6d, Boc-Gly-ΔCys(S-benzothiazole)-OMe], the IC50 in the series with A549 (lung carcinoma) came to 5.6 ± 0.9 µM; in [1] it was 6.7 ± 0.7 µM; in [2], 6.2 ± 0.6 µM; in series [3], 4.5 ± 0.5 µM; in [4], 6.1 ± 0.6 µM; in [5], 4.6 ± 0.4 µM. In addition, the IC50 was found to be 6.4 ± 0.4 µM in series [6]; 6.2 ± 0.8 µM in [7]; 4.6 ± 0.5 µM in series [8]; 4.9 ± 0.8 µM in [9]; 5.8 ± 0.9 µM in series [10]. In series [11], the “antiproliferative activity (in words)” value is “most potent representatives”. The “activity against resistant versus parent cell lines (in words)” value in series [11] is “equipotential towards both resistant and parent cell lines”.
As to `NCC(=O)N/C(=C\c1ccccc1)C(=O)O` [Gly(Z)ΔPhe], the “logβ of the analogous species with {N-NH2, Namide} binding mode” value in [12] was 2.19.

The record behind these values is PMC7927096, “Dipeptides of S-Substituted Dehydrocysteine as Artzyme Building Blocks: Synthesis, Complexing Abilities and Antiproliferative Properties” (International Journal of Molecular Sciences, 2021).
